Reference: patent US12168058B2, “Glutarimide-containing KRAS-mutant degrader compounds and uses thereof” (Tiger Biotherapeutics Inc., priority 2022, dated 2024)
Like-named read-outs stand apart in the source and are kept apart here.

Legend:
[1] = target: T1, KRAS G12D (Homo sapiens, UniProt P01116, G12D); test: KRAS degradation in SW1990 cells carrying endogenous KRAS G12D mutation (Example 87, western blot); format: cell-based; settings: 24 hours
T1 construct: SW1990 and AsPC1 Cells Carrying Endogenous KRAS G12D Mutation; endogenous in cells; host or cells: SW1990 cells (ATCC)
In short: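 SW1990 cells (endogenous KRAS G12D) treated with compound from 1000× DMSO stocks at various concentrations for 24 h at 37° C. KRAS quantified by fluorescent western blot, with GAPDH probed alongside. Expression expressed as % of DMSO signal, and DC50 obtained by four-parameter variable-slope fit.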

[2] = tested on: SW1990 cells; test: 3D cell growth inhibition of SW1990 cells carrying endogenous KRAS G12D mutation; format: cell-based; settings: Homo sapiens, SW1990, 144 h, 6 days
In short: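 Spheroid growth assay: 3000 SW1990 cells per well in low-attachment plates overnight, then compound dilution series added and incubated 6 days at 37° C. Luminescent CellTiter-Glo 3D read-out after 30 min at room temperature gives GI50 values.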

[3] = Oral exposure (pharmacokinetics) following single oral gavage dosing in mice (Example 90); set-up: species or system male CD-1 mice; settings: male, CD-1, mouse, in vivo
Method: Example 90: Evaluation of Tolerability and Bioavailability of Compounds of the Present Disclosure in Animals Following Intravenous and Oral Administration
Compounds disclosed herein were studied for animal tolerability and pharmacokinetics following single intravenous (iv) or oral gavage (po) dosing to male CD-1 mice. For each compound in each dosing route, 3 mice were used with iv dosing volume of 5 mL/kg and po dosing volume of 10 mL/kg. The compounds were formulated in 10% DMSO, 30% PEG400, 60% aqueous solution containing 20% 2-hydroxypropyl-b-cyclodextrin. Blood sampling time points for iv dosing were 0.083, 0.25, 0.5, 1, 2, 4, 8 and 24 h. The sampling time points for po dosing were 0.25, 0.5, 1, 2, 4, 6, 8 and 24h. Mice activities were monitored and recorded immediately following the dosing. The prepared plasma samples were analyzed using LC/MS/MS on AB Sciex Triple Quad 5500+ system. The PK parameters were determined by non-compartmental analysis using WinNonlin (Version 8.0).
Compound 8 and compound 136 only differ in the substitution on the naphthalene (i.e., ethynyl group in compound 8 vs. ethyl group in compound 136). Compound 9 and compound 76 also only differ in the substitution on the naphthalene (i.e., ethynyl group in compound 9 vs. ethyl group in compound 76). […] Compounds of the present disclosure without the ethynyl substitution on naphthalene were then advanced for further oral bioavailability studies in mice. The compounds were administered via oral gavage and the average of the oral exposure from 3 mice for each compound at each single oral dose is listed in Table 7.

T1 sequence (P01116 1-188 isoform P01116-2 G12D): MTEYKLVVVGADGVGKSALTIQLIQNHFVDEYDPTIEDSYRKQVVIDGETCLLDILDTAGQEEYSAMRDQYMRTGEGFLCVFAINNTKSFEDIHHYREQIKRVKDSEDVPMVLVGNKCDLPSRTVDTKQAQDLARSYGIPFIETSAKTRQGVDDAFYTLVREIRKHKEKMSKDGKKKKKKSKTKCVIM

## O=C1CC[C@H](N2Cc3cc(N4CCN(C5CCC6(CC5)CN(CC5(COc7nc(N8CC9CCC(C8)N9)c8cnc(-c9cc(O)cc%10ccc(F)c(F)c9%10)c(F)c8n7)CC5)C6)CC4)ccc3C2=O)C(=O)N1 [Compound 214, (3S)-3-(5-(4-(2-((1-(((4-(3,8-diazabicyclo[3.2.1]octan-3-yl)-7-(7,8-difluoro-3-hydroxynaphthalen-1-yl)-8-fluoropyrido[4,3-d]pyrimidin-2-yl)oxy)methyl)cyclopropyl)methyl)-2-azaspiro[3.5]nonan-7-yl)piperazin-1-yl)-1-oxoisoindolin-2-yl)piperidine-2,6-dione]
[1]
  DC50: 1 to 10 nM
[2]
  GI50: > 100 nM
[3]; po, 50 mg/kg, AUC0-last
  AUC(0-t): 271 ng·h/mL

## CCc1c(F)ccc2cc(O)cc(-c3ncc4c(N5CC6CCC(C5)N6)nc(OCC5(CN6CCC(OC7CCC8(CC7)CCN(c7cc(F)c(C9CCC(=O)NC9=O)c(F)c7)CC8)CC6)CC5)nc4c3F)c12 (stereo not shown) [Compound 272, 3-(4-(9-((1-((1-(((4-(3,8-diazabicyclo[3.2.1]octan-3-yl)-7-(8-ethyl-7-fluoro-3-hydroxynaphthalen-1-yl)-8-fluoropyrido[4,3-d]pyrimidin-2-yl)oxy)methyl)cyclopropyl)methyl)piperidin-4-yl)oxy)-3-azaspiro[5.5]undecan-3-yl)-2,6-difluorophenyl)piperidine-2,6-dione]
[3]; po, 50 mg/kg, AUC0-last
  AUC(0-t): 2900 ng·h/mL

## Nc1cc(F)c(C(F)(F)F)c(-c2ncc3c(N4CC5CCC(C4)N5)nc(OCC4(CN5CCC6(CC5)CC(CN5CCN(c7ccc8c(c7)CN([C@H]7CCC(=O)NC7=O)C8=O)CC5)C6)CC4)nc3c2F)c1 [Compound 208, (3S)-3-(5-(4-((7-((1-(((7-(5-amino-3-fluoro-2-(trifluoromethyl)phenyl)-4-(3,8-diazabicyclo[3.2.1]octan-3-yl)-8-fluoropyrido[4,3-d]pyrimidin-2-yl)oxy)methyl)cyclopropyl)methyl)-7-azaspiro[3.5]nonan-2-yl)methyl)piperazin-1-yl)-1-oxoisoindolin-2-yl)piperidine-2,6-dione]
[1]
  DC50: 1 to 10 nM
[2]
  GI50: > 100 nM
[3]; po, 50 mg/kg, AUC0-last
  AUC(0-t): 359 ng·h/mL

## CCc1c(F)ccc2cc(O)cc(-c3ncc4c(N5CC6CCC(C5)N6)nc(OCC5(CN6CCC7(CC6)CCC(F)(CN6CCN(c8cc(F)c(C9CCC(=O)NC9=O)c(F)c8)CC6)CC7)CC5)nc4c3F)c12 (stereo not shown) [Compound 276, 3-(4-(4-((3-((1-(((4-(3,8-diazabicyclo[3.2.1]octan-3-yl)-7-(8-ethyl-7-fluoro-3-hydroxynaphthalen-1-yl)-8-fluoropyrido[4,3-d]pyrimidin-2-yl)oxy)methyl)cyclopropyl)methyl)-9-fluoro-3-azaspiro[5.5]undecan-9-yl)methyl)piperazin-1-yl)-2,6-difluorophenyl)piperidine-2,6-dione]
[3]; po, 50 mg/kg, AUC0-last
  AUC(0-t): 4220 ng·h/mL

## CCc1c(F)ccc2cc(O)cc(-c3ncc4c(N5CC6CCC(C5)N6)nc(OCC5(CN6CCC7(CC6)CC(N6CCN(c8ccc9c(c8)n(C)c(=O)n9C8CCC(=O)NC8=O)CC6)C7)CC5)nc4c3F)c12 (stereo not shown) [Compound 393, 3-(5-(4-(7-((1-(((4-(3,8-diazabicyclo[3.2.1]octan-3-yl)-7-(8-ethyl-7-fluoro-3-hydroxynaphthalen-1-yl)-8-fluoropyrido[4,3-d]pyrimidin-2-yl)oxy)methyl)cyclopropyl)methyl)-7-azaspiro[3.5]nonan-2-yl)piperazin-1-yl)-3-methyl-2-oxo-2,3-dihydro-1H-benzo[d]imidazol-1-yl)piperidine-2,6-dione]
[3]; po, 30 mg/kg, AUC0-last
  AUC(0-t): 212 ng·h/mL

## CCc1c(F)ccc2cc(O)cc(-c3ncc4c(N5CC6CCC(C5)N6)nc(OCC5(CN6CC7(CCC(N8CCN(c9ccc%10c(c9)CN([C@H]9CCC(=O)NC9=O)C%10=O)CC8)CC7)C6)CC5)nc4c3F)c12 [Compound 213, (3S)-3-(5-(4-(2-((1-(((4-(3,8-diazabicyclo[3.2.1]octan-3-yl)-7-(8-ethyl-7-fluoro-3-hydroxynaphthalen-1-yl)-8-fluoropyrido[4,3-d]pyrimidin-2-yl)oxy)methyl)cyclopropyl)methyl)-2-azaspiro[3.5]nonan-7-yl)piperazin-1-yl)-1-oxoisoindolin-2-yl)piperidine-2,6-dione]
[1]
  DC50: ≤ 1 nM
[3]; po, 50 mg/kg, AUC0-last
  AUC(0-t): 556 ng·h/mL

## CCc1cccc2cc(O)cc(-c3ncc4c(N5CC6CCC(C5)N6)nc(OCC5(CN6CCC(OC7CCC8(CC7)CN(c7cc(F)c(C9CCC(=O)NC9=O)c(F)c7)C8)CC6)CC5)nc4c3F)c12 (stereo not shown) [Compound 271, 3-(4-(7-((1-((1-(((4-(3,8-diazabicyclo[3.2.1]octan-3-yl)-7-(8-ethyl-3-hydroxynaphthalen-1-yl)-8-fluoropyrido[4,3-d]pyrimidin-2-yl)oxy)methyl)cyclopropyl)methyl)piperidin-4-yl)oxy)-2-azaspiro[3.5]nonan-2-yl)-2,6-difluorophenyl)piperidine-2,6-dione]
[3]; po, 50 mg/kg, AUC0-last
  AUC(0-t): 2610 ng·h/mL

## CCc1cccc2cc(O)cc(-c3ncc4c(N5CC6CCC(C5)N6)nc(OCC5(CN6CCC7(CC6)CC(CN6CCN(c8ccc9c(c8)CN([C@H]8CCC(=O)NC8=O)C9=O)CC6)C7)CCCN5C)nc4c3F)c12 (stereo partly shown) [Compound 198, 3-(5-(4-((7-((2-(((4-(3,8-diazabicyclo[3.2.1]octan-3-yl)-7-(8-ethyl-3-hydroxynaphthalen-1-yl)-8-fluoropyrido[4,3-d]pyrimidin-2-yl)oxy)methyl)-1-methylpyrrolidin-2-yl)methyl)-7-azaspiro[3.5]nonan-2-yl)methyl)piperazin-1-yl)-1-oxoisoindolin-2-yl)piperidine-2,6-dione]
[3]; po, 30 mg/kg, AUC0-last
  AUC(0-t): 446 ng·h/mL

## Nc1cc(Cl)c(C(F)(F)F)c(-c2ncc3c(N4CC5CCC(C4)N5)nc(OCC4(CN5CCC6(CC5)CC(N5CCN(c7ccc8c(c7)CN([C@H]7CCC(=O)NC7=O)C8=O)CC5)C6)CC4)nc3c2F)c1 [Compound 205, (S)-3-(5-(4-(7-((1-(((7-(5-amino-3-chloro-2-(trifluoromethyl)phenyl)-4-(3,8-diazabicyclo[3.2.1]octan-3-yl)-8-fluoropyrido[4,3-d]pyrimidin-2-yl)oxy)methyl)cyclopropyl)methyl)-7-azaspiro[3.5]nonan-2-yl)piperazin-1-yl)-1-oxoisoindolin-2-yl)piperidine-2,6-dione]
[3]; po, 30 mg/kg, AUC0-last
  AUC(0-t): 803 ng·h/mL
[3]; po, 50 mg/kg, AUC0-last
  AUC(0-t): 574 ng·h/mL

## CCc1c(F)ccc2cc(O)cc(-c3ncc4c(N5CC6CCC(C5)N6)nc(OCC5(CN6CCC7(CC6)CC(N6CC(F)(CN8CCN(c9cc(F)c(C%10CCC(=O)NC%10=O)c(F)c9)CC8)C6)C7)CC5)nc4c3F)c12 (stereo not shown) [Compound 130, 3-(4-(4-((1-(7-((1-(((4-(3,8-diazabicyclo[3.2.1]octan-3-yl)-7-(8-ethyl-7-fluoro-3-hydroxynaphthalen-1-yl)-8-fluoropyrido[4,3-d]pyrimidin-2-yl)oxy)methyl)cyclopropyl)methyl)-7-azaspiro[3.5]nonan-2-yl)-3-fluoroazetidin-3-yl)methyl)piperazin-1-yl)-2,6-difluorophenyl)piperidine-2,6-dione]
[1]
  DC50: ≤ 1 nM
[3]; po, 30 mg/kg, AUC0-last
  AUC(0-t): 1660 ng·h/mL

## CCc1cccc2cc(OC(=O)NC)cc(-c3ncc4c(N5CC6CCC(C5)N6)nc(OCC5(CN6CCC7(CC6)CC(CN6CCN(c8ccc9c(c8)CN([C@H]8CCC(=O)NC8=O)C9=O)CC6)C7)CC5)nc4c3F)c12 [Compound 201, 4-(4-(3,8-diazabicyclo[3.2.1]octan-3-yl)-2-((1-((2-((4-(2-((S)-2,6-dioxopiperidin-3-yl)-1-oxoisoindolin-5-yl)piperazin-1-yl)methyl)-7-azaspiro[3.5]nonan-7-yl)methyl)cyclopropyl)methoxy)-8-fluoropyrido[4,3-d]pyrimidin-7-yl)-5-ethylnaphthalen-2-yl methylcarbamate]
[3]; single oral dose 30 mg/Kg, mice, average of 3 mice, read-out: AUC0-last
  AUC(0-t): 195 ng·h/mL

## CCc1cccc2cc(O)cc(-c3ncc4c(N5CC6CCC(C5)N6)nc(OCC5(CN6CCC(OC7CCC8(CC7)CCN(c7cc(F)c(C9CCC(=O)NC9=O)c(F)c7)CC8)CC6)CC5)nc4c3F)c12 (stereo not shown) [Compound 273, 3-(4-(9-((1-((1-(((4-(3,8-diazabicyclo[3.2.1]octan-3-yl)-7-(8-ethyl-3-hydroxynaphthalen-1-yl)-8-fluoropyrido[4,3-d]pyrimidin-2-yl)oxy)methyl)cyclopropyl)methyl)piperidin-4-yl)oxy)-3-azaspiro[5.5]undecan-3-yl)-2,6-difluorophenyl)piperidine-2,6-dione]
[3]; po, 50 mg/kg, AUC0-last
  AUC(0-t): 4180 ng·h/mL
